Measured values published in patent US10722516B2, “Use of landiolol hydrochloride in the long-term treatment of tachyarrhythmias” (AOP Orphan Pharmaceuticals AG, priority 2013, dated 2020).
Counter-ions that a name gives are not always drawn.

Tests used:
healthy volunteers [1] = experiment: 24 h long-term infusion study: local tolerability and safety; format: in vivo, human
Protocol: (§1) A single centre prospective, randomized, double blind, crossover, pharmacokinetic, safety and tolerability study to compare long-term infusion administration of AOP LDLL600 against esmolol in healthy volunteers was performed.
(§2) Landiolol hydrochloride lyophilized (LDLL600) comprises 600 mg landiolol hydrochloride, 600 mg mannitol, pH 6.5. The primary packing of LDLL600 is 50 ml vial, the reconstitution volume is 50 ml and the final product concentration is 12 mg/mL landiolol HCl.
(§3) 12 subjects were administered AOP LDLL600 or Esmolol (Brevibloc, 2500 mg/250 ml) in 1:1 ratio in double-blind, randomized, cross-over setting. PK, systemic cardiovascular and local tolerability and safety of the 24 h-long term infusions of three dose levels of both IMPs during each treatment period were assessed.
(§4) Landiolol was infused over 24 h in a dose of 10 μg/KG/min (2 hrs), followed by 20 μg/KG/min (2 hrs), followed by 40 μg/KG/min for 20 hrs.
(§5) Dosing algorithm was body weight divided by 20, 10 and 5 in ml/h giving 10, 20 and 40 μg/KG/min at a concentration of 12 mg/ml. No severe adverse drug reactions, mild local reactions, 1 severe local reaction (Esmolol High Dose).
(§6) Landiolol was infused over 24 h in a dose of 10, 20 and 40 μg/KG/min, i.e. 10 μg/KG/min landiolol were administered for 2 hrs, followed by 2 hrs administration of 20 μg/KG/min and further followed by 20 hrs administration of 40 μg/KG/min.

healthy volunteers [2] = experiment: 24 h long-term infusion study, AOP LDLL600 against esmolol: heart rate; format: in vivo, human
Protocol: as §1, §2, §3, §4, §5, §6
Post-infusion follow up measurements were performed immediately after 20 hrs administration study, i.e. 2, 4 min etc. after stop of landiolol administration.

[3] = 24 h infusion, three dose levels
[4] = FU Predose (end of 20 h HD, infusion stop)
[5] = FU post-infusion, 20 h 2 min (2 min after infusion stop)
[6] = FU post-infusion, 20 h 4 min (4 min after infusion stop)
[7] = FU post-infusion, 20 h 6 min (6 min after infusion stop)
[8] = FU post-infusion, 20 h 8 min (8 min after infusion stop)
[9] = FU post-infusion, 20 h 12 min (12 min after infusion stop)
[10] = FU post-infusion, 20 h 16 min (16 min after infusion stop)
[11] = FU post-infusion, 20 h 20 min (20 min after infusion stop)
[12] = FU post-infusion, 20 h 30 min (30 min after infusion stop)
[13] = FU post-infusion, 21 h (1 h after infusion stop)
[14] = FU post-infusion, 22 h (2 h after infusion stop)
[15] = FU post-infusion, 24 h (4 h after infusion stop)
[16] = FU post-infusion, 26 h (6 h after infusion stop)
[17] = HD infusion (landiolol 40, esmolol 200 μg/kg/min, after LD and MD), 2 min
[18] = HD infusion (landiolol 40, esmolol 200 μg/kg/min, after LD and MD), 3 min
[19] = HD infusion (landiolol 40, esmolol 200 μg/kg/min, after LD and MD), 4 min
[20] = HD infusion (landiolol 40, esmolol 200 μg/kg/min, after LD and MD), 6 min
[21] = HD infusion (landiolol 40, esmolol 200 μg/kg/min, after LD and MD), 8 min
[22] = HD infusion (landiolol 40, esmolol 200 μg/kg/min, after LD and MD), 12 min
[23] = HD infusion (landiolol 40, esmolol 200 μg/kg/min, after LD and MD), 16 min
[24] = HD infusion (landiolol 40, esmolol 200 μg/kg/min, after LD and MD), 20 min
[25] = HD infusion (landiolol 40, esmolol 200 μg/kg/min, after LD and MD), 30 min
[26] = HD infusion (landiolol 40, esmolol 200 μg/kg/min, after LD and MD), 60 min
[27] = HD infusion (landiolol 40, esmolol 200 μg/kg/min, after LD and MD), 90 min
[28] = HD infusion (landiolol 40, esmolol 200 μg/kg/min, after LD and MD), 2 h
[29] = HD infusion (landiolol 40, esmolol 200 μg/kg/min, after LD and MD), 4 h
[30] = HD infusion (landiolol 40, esmolol 200 μg/kg/min, after LD and MD), 8 h
[31] = HD infusion (landiolol 40, esmolol 200 μg/kg/min, after LD and MD), 12 h
[32] = HD infusion (landiolol 40, esmolol 200 μg/kg/min, after LD and MD), 16 h
[33] = HD infusion (landiolol 40, esmolol 200 μg/kg/min, after LD and MD), 20 h (end)

CC1(C)OC[C@@H](COC(=O)CCc2ccc(OC[C@@H](O)CNCCNC(=O)N3CCOCC3)cc2)O1 [Landiolol, (−)-[(S)-2,2-dimethyl-1,3-dioxolan-4-yl]methyl 3-[4-[(S)-2-hydroxy-3-(2-morpholinocarbonylamino)ethylamino]propoxy]phenylpropionate monohydrochloride]
local tolerability compared to Esmolol (healthy volunteers [1]; 24 h infusion): clearly better
local reactions (percent of subjects) (healthy volunteers [1]; [3]): 16.7%
local reactions (subjects/total) (healthy volunteers [1]; [3]): 2/12
local venous skin irritations or inflammatory reactions at the site of injection (healthy volunteers [1]; long term treatment): did not bring about any blushing, erythema, pain, inflammation, induration, phlebitis and thrombosis
change of heart rate from predose, Mean (SD) (healthy volunteers [2]; [4]): −5.7 (11.51) beats per minute
heart rate, Mean (SD) (healthy volunteers [2]; [4]): 61.7 (5.87) beats per minute
change of heart rate from predose, Mean (SD) (healthy volunteers [2]; [5]): −6.8 (11.98) beats per minute
heart rate, Mean (SD) (healthy volunteers [2]; [5]): 60.6 (5.50) beats per minute
change of heart rate from predose, Mean (SD) (healthy volunteers [2]; [6]): −6.5 (9.88) beats per minute
heart rate, Mean (SD) (healthy volunteers [2]; [6]): 60.8 (4.04) beats per minute
change of heart rate from predose, Mean (SD) (healthy volunteers [2]; [7]): −5.9 (9.79) beats per minute
heart rate, Mean (SD) (healthy volunteers [2]; [7]): 61.4 (5.43) beats per minute
change of heart rate from predose, Mean (SD) (healthy volunteers [2]; [8]): −5.7 (10.63) beats per minute
heart rate, Mean (SD) (healthy volunteers [2]; [8]): 61.7 (5.33) beats per minute
change of heart rate from predose, Mean (SD) (healthy volunteers [2]; [9]): −3.8 (10.00) beats per minute
heart rate, Mean (SD) (healthy volunteers [2]; [9]): 63.5 (6.11) beats per minute
change of heart rate from predose, Mean (SD) (healthy volunteers [2]; [10]): −0.3 (14.69) beats per minute
heart rate, Mean (SD) (healthy volunteers [2]; [10]): 67.0 (8.92) beats per minute
change of heart rate from predose, Mean (SD) (healthy volunteers [2]; [11]): −0.3 (11.89) beats per minute
heart rate, Mean (SD) (healthy volunteers [2]; [11]): 67.0 (8.29) beats per minute
change of heart rate from predose, Mean (SD) (healthy volunteers [2]; [12]): 2.7 (9.47) beats per minute
heart rate, Mean (SD) (healthy volunteers [2]; [12]): 70.0 (5.70) beats per minute
change of heart rate from predose, Mean (SD) (healthy volunteers [2]; [13]): 1.8 (12.70) beats per minute
heart rate, Mean (SD) (healthy volunteers [2]; [13]): 69.2 (9.64) beats per minute
change of heart rate from predose, Mean (SD) (healthy volunteers [2]; [14]): −0.5 (9.97) beats per minute
heart rate, Mean (SD) (healthy volunteers [2]; [14]): 66.8 (8.43) beats per minute
change of heart rate from predose, Mean (SD) (healthy volunteers [2]; [15]): 4.2 (10.34) beats per minute
heart rate, Mean (SD) (healthy volunteers [2]; [15]): 71.5 (4.96) beats per minute
change of heart rate from predose, Mean (SD) (healthy volunteers [2]; [16]): 5.3 (9.97) beats per minute
heart rate, Mean (SD) (healthy volunteers [2]; [16]): 72.6 (5.26) beats per minute
change of heart rate from predose, Mean (SD) (healthy volunteers [2]; HD Predose (end of 2 h MD)): −11.3 (9.41) beats per minute
heart rate, Mean (SD) (healthy volunteers [2]; HD Predose (end of 2 h MD)): 56.1 (7.38) beats per minute
change of heart rate from predose, Mean (SD) (healthy volunteers [2]; [17]): −9.6 (8.69) beats per minute
heart rate, Mean (SD) (healthy volunteers [2]; [17]): 57.8 (5.43) beats per minute
change of heart rate from predose, Mean (SD) (healthy volunteers [2]; [18]): −9.9 (9.92) beats per minute
heart rate, Mean (SD) (healthy volunteers [2]; [18]): 57.4 (6.40) beats per minute
change of heart rate from predose, Mean (SD) (healthy volunteers [2]; [19]): −12.6 (9.52) beats per minute
heart rate, Mean (SD) (healthy volunteers [2]; [19]): 54.8 (5.45) beats per minute
change of heart rate from predose, Mean (SD) (healthy volunteers [2]; [20]): −9.7 (11.01) beats per minute
heart rate, Mean (SD) (healthy volunteers [2]; [20]): 57.7 (7.38) beats per minute
change of heart rate from predose, Mean (SD) (healthy volunteers [2]; [21]): −10.7 (10.76) beats per minute
heart rate, Mean (SD) (healthy volunteers [2]; [21]): 56.7 (6.62) beats per minute
change of heart rate from predose, Mean (SD) (healthy volunteers [2]; [22]): −9.4 (12.21) beats per minute
heart rate, Mean (SD) (healthy volunteers [2]; [22]): 57.9 (8.13) beats per minute
change of heart rate from predose, Mean (SD) (healthy volunteers [2]; [23]): −11.3 (10.71) beats per minute
heart rate, Mean (SD) (healthy volunteers [2]; [23]): 56.0 (6.80) beats per minute
change of heart rate from predose, Mean (SD) (healthy volunteers [2]; [24]): −11.4 (9.74) beats per minute
heart rate, Mean (SD) (healthy volunteers [2]; [24]): 55.9 (6.35) beats per minute
change of heart rate from predose, Mean (SD) (healthy volunteers [2]; [25]): −10.5 (10.30) beats per minute
heart rate, Mean (SD) (healthy volunteers [2]; [25]): 56.8 (7.23) beats per minute
change of heart rate from predose, Mean (SD) (healthy volunteers [2]; [26]): −5.4 (13.14) beats per minute
heart rate, Mean (SD) (healthy volunteers [2]; [26]): 61.9 (8.93) beats per minute
change of heart rate from predose, Mean (SD) (healthy volunteers [2]; [27]): −4.8 (11.24) beats per minute
heart rate, Mean (SD) (healthy volunteers [2]; [27]): 62.5 (5.95) beats per minute
change of heart rate from predose, Mean (SD) (healthy volunteers [2]; [28]): −3.0 (9.59) beats per minute
heart rate, Mean (SD) (healthy volunteers [2]; [28]): 64.3 (5.25) beats per minute
change of heart rate from predose, Mean (SD) (healthy volunteers [2]; [29]): −6.9 (11.24) beats per minute
heart rate, Mean (SD) (healthy volunteers [2]; [29]): 60.4 (5.25) beats per minute
change of heart rate from predose, Mean (SD) (healthy volunteers [2]; [30]): −9.8 (10.39) beats per minute
heart rate, Mean (SD) (healthy volunteers [2]; [30]): 57.5 (5.96) beats per minute
change of heart rate from predose, Mean (SD) (healthy volunteers [2]; [31]): −10.8 (10.17) beats per minute
heart rate, Mean (SD) (healthy volunteers [2]; [31]): 56.5 (6.08) beats per minute
change of heart rate from predose, Mean (SD) (healthy volunteers [2]; [32]): −13.8 (10.01) beats per minute
heart rate, Mean (SD) (healthy volunteers [2]; [32]): 53.6 (4.89) beats per minute
change of heart rate from predose, Mean (SD) (healthy volunteers [2]; [33]): −5.7 (11.51) beats per minute
heart rate, Mean (SD) (healthy volunteers [2]; [33]): 61.7 (5.87) beats per minute
change of heart rate from predose, Mean (SD) (healthy volunteers [2]; LD infusion (landiolol 10, esmolol 50 μg/kg/min), 2 min): −1.8 (7.77) beats per minute
